Measurements published in patent US7812022B2 (GlaxoSmithKline LLC, priority 2004, dated 2010).

Key:
[1] = biological target: T1, ErbB2 or EGFR; experiment: ErbB family substrate phosphorylation enzyme assay (HTRF), Method A or Method B; assay type: biochemical
T1 construct: enzymes purified from a baculovirus expression system; Reagent production was conducted essentially as described in Brignola, P. S., et al, (2002) J. Biol. Chem. 277(2): 1576-1585
Method: Compounds of the present invention were tested for EGFR, ErbB-2, and ErbB-4 protein tyrosine kinase inhibitory activity in substrate phosphorylation assays using enzymes purified from a baculovirus expression system. Reagent production was conducted essentially as described in Brignola, P. S., et al, (2002) J. Biol. Chem. 277(2): 1576-1585.
The method measures the ability of the isolated enzyme to catalyse the transfer of the gamma-phosphate from ATP onto the tyrosine residue of a biotinylated synthetic peptide referenced “Peptide C” in Brignola, P. S., et al, (2002) J. Biol. Chem. 277(2):1576-1585. The extent of tyrosine phosphorylation was measured using an anti-phosphotyrosine antibody, and quantified by homogenous time-resolved fluorescence (HTRF).
Reactions were performed in black 384-well polystyrene flat-bottom plates in a final volume of 20 ul. Assays were performed by adding 10 μl of each of the following solutions, substrate Mix and enzyme mix: The Substrate mix contained 100 mM 3-[N-morpholino]propanesulfonic acid (MOPS) (pH 7.5), 2 mM MnCl2, 20 μM ATP, 0.01% Tween-20, 0.1 mg/mL (BSA), 0.8 uM peptide substrate, and 1 mM dithiothreitol. The enzyme mix contained 100 mM MOPS (pH7.5); 0.01% Tween-20; 0.1 mg/mL BSA, and either 0.8 nM EGFR, 10 nM ErbB2, or 1 nM ErbB4
During the course of these studies, two separate methods have been used to measure the potency of compounds. In Method A, the substrate mix was added to the compound plates first, then the reaction was started by adding the enzyme mix. In Method B, the enzyme mix was added to the compound plates and the plates were incubated at 20° C. for 1 hour. The reactions were then started by adding the substrate mix.
After initiating the reaction with either method describe above, the reactions were allowed to proceed for 90 minutes at 20° C. The reactions were then terminated by the addition of 20 μl 100 mM EDTA to each well. 40 μl/well of HTRF detection mix were added to the assay plates. The final concentrations of the detection reagents were: 100 mM HEPES (pH7.5), 0.1 mg/mL BSA, 15 nM streptavidin-labeled allophycocyanin (PerkinElmer), and 1 nM europium-labeled anti-phosphotyrosine antibody (PerkinElmer). Assay plates were left unsealed and were counted in a Wallac Multilabel Counter 1420 (PerkinElmer).
Compounds under analysis were dissolved in Me2SO to 1.0 mM and serially diluted 1 to 3 with Me2SO through twelve dilutions. 1 μl of each concentration was transferred to the corresponding well of an assay plate. This creates a final compound concentration range from 0.00027 to 47.6 μM.
The data for dose responses were plotted as % Inhibition calculated with the data reduction formula 100*(1−(U1−C2)/(C1−C2)) versus concentration of compound where U is the unknown value, C1 is the average control value obtained for 4.76% DMSO, and C2 is the average control value obtained for 0.035 M EDTA. Data were fitted with a curve described by: y=((Vmax*x)/(K+x))+Y^2 where Vmax is the upper asymptote, Y2 is the Y intercept, and K is the IC50. The results for each compound were recorded as pIC50s, calculated as follows: pIC50=−Log 10(K)

[2] = tested on: BT474 and HN5 tumor cell lines; experiment: Methylene blue growth inhibition assay (cellular Method A); assay type: cell-based, Human; conditions: Homo sapiens, BT-474, 72 h, 3 days, read-out: Activity (Method): growth inhibition IC50 class
Method: Human breast (BT474) and head and neck (HN5) were cultured in low glucose DMEM (Life Technologies 12320-032) containing 10% fetal bovine serum (FBS). Human colon tumor cells (Colo205) were cultured in DMEM (Invitrogen, 10564) containing 10% FBS. The SV40 transformed human mammary epithelial cell line HB4a was transfected with either human H-ras cDNA (HB4a r4.2) or the human c-ErbB2 cDNA (HB4a c5.2). The HB4a clones were cultured in RPMI containing 10% FBS, insulin (5 g/mL), hydrocortisone (5 g/mL), supplemented with the selection agent hygromycin B (50 g/mL). All lines were grown in a humidified incubator at 37° C. in 95% air, 5% CO2. Cells were harvested using trypsin/EDTA, counted using a haemocytometer, and plated in 100 microliters of the appropriate media, at the following densities, in a 96-well tissue culture plate (Falcon 3075): BT474 10,000 cells/well, HN5 3,000 cells/well. The next day, compounds were diluted in DMEM containing […] gentamicin, at twice the final required concentration, from 10 mM stock solutions in DMSO. 100 microliters/well of these dilutions were added to the 100 microliters of media currently on the cell plates. Medium containing 0.6% DMSO was added to control wells. Compounds diluted in DMEM were added to all cell lines. The final concentration of DMSO in all wells was 0.3%. Cells were returned to the incubator (37° C., 10% CO2) for 3 days. Medium was then removed by aspiration. Cell biomass was estimated by staining cells with 90 microliters per well methylene blue (Sigma M9140, 0.5% in 1:1 ethanol:water), and incubation at rt for at least 30 minutes. Stain was removed, and the plates rinsed by immersion in deionized water and air-dried. To release stain from the cells 100 microliters of solubilization solution was added (1% N-lauroyl sarcosine, Sodium salt, Sigma L5125, in PBS), and plates were shaken gently for about 30 minutes. Optical density at 620 nm was measured on a microplate reader. Percent inhibition of cell growth was calculated relative to vehicle treated control wells. Concentration of compound that inhibits 50% of control cell growth (IC50) was interpolated using nonlinear regression (Levenberg-Marquardt) and the equation, y=Vmax*(1−(x/(K+x)))+Y2, where “K” was equal to the IC50. Method B: Celltiter Glo® Growth Inhibition Assays

[3] = Method A: substrate mix added first, reaction started with enzyme mix
[4] = Method B: enzyme mix pre-incubated with compound 1 hour at 20° C., started with substrate mix

With `S=C(Nc1cccc(-c2nn3ccccc3c2-c2ccnc(Nc3ccc4c(c3)OCCO4)n2)c1)c1ccccc1Cl` [Example 8, 2-Chloro-N-(3-{3-[2-(2,3-dihydro-benzo[1,4]dioxin-6-ylamino)-pyrimidin-4-yl]-pyrazolo[1,5-a]pyridin-2-yl}-phenyl)-thiobenzamide] as the compound, how does the “Activity (Method): pIC50 class against ErbB2 or EGFR” value (from here on “Activity (Method): pIC50 class”) [1, 3] read?
Its value is “++ (A) (at least one pIC50 measurement greater than 6 against either ErbB2 or EGFR but no measurement greater than pIC50 of 7)”.

What about the IC50 [2] of the same compound?
The IC50 was 100 to 1000 nM.

Which results are given for `COc1cccc(C(=S)Nc2cccc(-c3nn4ccccc4c3-c3ccnc(Nc4ccc5c(c4)OCCO5)n3)c2)c1` [Example 9, N-(3-{3-[2-(2,3-Dihydro-benzo[1,4-]dioxin-6-ylamino)-pyrimidin-4-yl]-pyrazolo[1,5-a]pyridin-2-yl}-phenyl)-3-methoxy-thiobenzamide]?
Activity (Method): pIC50 class against ErbB2 or EGFR [1, 3]: ++ (A) (at least one pIC50 measurement greater than 6 against either ErbB2 or EGFR but no measurement greater than pIC50 of 7); IC50 [2]: 100 to 1000 nM

With `Cn1cccc1C(=S)Nc1cccc(-c2nn3ccccc3c2-c2ccnc(Nc3ccc4c(c3)OCCO4)n2)c1` [Example 10, 1-Methyl-1H-pyrrole-2-carbothioic acid (3-{3-[2-(2,3-dihydro-benzo[1,4]dioxin-6-ylamino)-pyrimidin-4-yl]pyrazolo[1,5-a]pyridin-2-yl}-phenyl)-amide] as the compound, how does the “Activity (Method): pIC50 class” value [1, 3] read?
The value was “++ (A) (at least one pIC50 measurement greater than 6 against either ErbB2 or EGFR but no measurement greater than pIC50 of 7)”.

And the IC50 [2]?
Its IC50 is 100 to 1000 nM.

What does the source list for `O=C(Nc1cccc(-c2nn3ccccc3c2-c2ccnc(Nc3cccc(F)c3)n2)c1)c1ccccc1F` [Example 12, 2-Fluoro-N-(3-{3-[2-(3-fluoro-phenylamino)-pyrimidin-4-yl]-pyrazolo[1,5-a]pyridin-2-yl}-phenyl)-benzamide]?
Activity (Method): pIC50 class against ErbB2 or EGFR [1, 4]: ++ (B) (at least one pIC50 measurement greater than 6 against either ErbB2 or EGFR but no measurement greater than pIC50 of 7); IC50 [2]: < 100 nM

For `O=C(Nc1cccc(-c2nn3ccccc3c2-c2ccnc(Nc3cccc(F)c3)n2)c1)c1c(F)cccc1C(F)(F)F` [Example 13, 2-Fluoro-N-(3-{3-[2-(3-fluoro-phenylamino)-pyrimidin-4-yl]-pyrazolo[1,5-a]pyridin-2-yl}-phenyl)-6-trifluoromethyl-benzamide], which “Activity (Method): pIC50 class” value [1, 4] is on record?
The value was “+++ (B) (at least one pIC50 measurement of greater than 7 against either ErbB2 or EGFR)”.

What about the IC50 [2] of the same compound?
The IC50 was less than 100 nM.

How did the “Activity (Method): pIC50 class” value [1, 4] turn out when `O=C(Nc1cccc(-c2nn3ccccc3c2-c2ccnc(Nc3cccc(F)c3)n2)c1)c1cccc(F)c1F` [Example 14, 2,3-Difluoro-N-(3-{3-[2-(3-fluoro-phenylamino)-pyrimidin-4-yl]-pyrazolo[1,5-a]pyridin-2-yl}-phenyl)-benzamide] was run?
Its value is “+++ (B) (at least one pIC50 measurement of greater than 7 against either ErbB2 or EGFR)”.

What about the IC50 [2] of the same compound?
The IC50 was less than 100 nM.

For `O=C(Nc1cccc(-c2nn3ccccc3c2-c2ccnc(Nc3cccc(F)c3)n2)c1)c1ccc(F)cc1` [Example 15, 4-Fluoro-N-(3-{3-[2-(3-fluoro-phenylamino)-pyrimidin-4-yl]-pyrazolo[1,5-a]pyridin-2-yl}-phenyl)-benzamide], which “Activity (Method): pIC50 class” value [1, 4] is on record?
Its value is “+++ (B) (at least one pIC50 measurement of greater than 7 against either ErbB2 or EGFR)”.

What about the IC50 [2] of the same compound?
The IC50 was 100 to 1000 nM.

How did the “Activity (Method): pIC50 class” value [1, 4] turn out when `O=C(Nc1cccc(-c2nn3ccccc3c2-c2ccnc(Nc3cccc(F)c3)n2)c1)c1ccccc1C(F)(F)F` [Example 16, N-(3-{3-[2-(3-Fluoro-phenylamino)-pyrimidin-4-yl]-pyrazolo[1,5-a]pyridin-2-yl}-phenyl)-2-trifluoromethyl-benzamide] was run?
Its value is “+++ (B) (at least one pIC50 measurement of greater than 7 against either ErbB2 or EGFR)”.

And the IC50 [2]?
Its IC50 is less than 100 nM.

Which “Activity (Method): pIC50 class” value [1, 4] does the source give for `O=C(Nc1cccc(-c2nn3ccccc3c2-c2ccnc(Nc3cccc(F)c3)n2)c1)c1cccc(F)c1` [Example 17, 3-Fluoro-N-(3-{3-[2-(3-fluoro-phenylamino)-pyrimidin-4-yl]-pyrazolo[1,5-a]pyridin-2-yl}-phenyl)-benzamide] here?
Its value is “+++ (B) (at least one pIC50 measurement of greater than 7 against either ErbB2 or EGFR)”.

And the IC50 [2]?
Its IC50 is 100 to 1000 nM.

How did the “Activity (Method): pIC50 class” value [1, 4] turn out when `Cc1cccc(C(=O)Nc2cccc(-c3nn4ccccc4c3-c3ccnc(Nc4cccc(F)c4)n3)c2)c1` [Example 18, N-(3-{3-[2-(3-Fluoro-phenylamino)-pyrimidin-4-yl]-pyrazolo[1,5-a]pyridin-2-yl}-phenyl)-3-methyl-benzamide] was run?
Its value is “++ (B) (at least one pIC50 measurement greater than 6 against either ErbB2 or EGFR but no measurement greater than pIC50 of 7)”.

What about the IC50 [2] of the same compound?
Its IC50 is 100 to 1000 nM.

`O=C(Nc1cccc(-c2nn3ccccc3c2-c2ccnc(Nc3cccc(F)c3)n2)c1)c1ccc(F)cc1F` [Example 19, 2,4-Difluoro-N-(3-{3-[2-(3-fluoro-phenylamino)-pyrimidin-4-yl]-pyrazolo[1,5-a]pyridin-2-yl}-phenyl)-benzamide] was tested. Which “Activity (Method): pIC50 class” value [1, 4] did it give?
The value was “+++ (B) (at least one pIC50 measurement of greater than 7 against either ErbB2 or EGFR)”.

What about the IC50 [2] of the same compound?
The IC50 was 100 to 1000 nM.

Which results are given for `O=C(Nc1cccc(-c2nn3ccccc3c2-c2ccnc(Nc3cccc(F)c3)n2)c1)c1ccc(F)cc1Cl` [Example 20, 2-Chloro-4-fluoro-N-(3-{3-[2-(3-fluoro-phenylamino)-pyrimidin-4-yl]-pyrazolo[1,5-a]pyridin-2-yl}-phenyl)-benzamide]?
Activity (Method): pIC50 class against ErbB2 or EGFR [1, 4]: ++ (B) (at least one pIC50 measurement greater than 6 against either ErbB2 or EGFR but no measurement greater than pIC50 of 7); IC50 [2]: 100 to 1000 nM

With `O=C(Nc1cccc(-c2nn3ccccc3c2-c2ccnc(Nc3cccc(F)c3)n2)c1)c1c(F)ccc(F)c1Cl` [Example 21, 2-Chloro-3,6-difluoro-N-(3-{3-[2-(3-fluoro-phenylamino)-pyrimidin-4-yl]-pyrazolo[1,5-a]pyridin-2-yl}-phenyl)-benzamide] as the compound, how does the “Activity (Method): pIC50 class” value [1, 4] read?
The value was “+++ (B) (at least one pIC50 measurement of greater than 7 against either ErbB2 or EGFR)”.

And the IC50 [2]?
The IC50 was 100 to 1000 nM.
